For nine compounds, EC50 results are on record in patent US20190315771A1, “NOVEL 2-ACYLAMINOTHIAZOLE DERIVATIVE AND PREPARATION METHOD THEREFOR AND USE THEREOF” (SICHUAN KELUN-BIOTECH BIOPHARMACEUTICAL CO., LTD., priority 2016, published 2019).

The target of the experiment is T1, human TPOR (Homo sapiens, UniProt P40238).
T1 construct: expressed in transfected cells; host or cells: mouse BAF3 cells
T1 sequence (P40238 26-635): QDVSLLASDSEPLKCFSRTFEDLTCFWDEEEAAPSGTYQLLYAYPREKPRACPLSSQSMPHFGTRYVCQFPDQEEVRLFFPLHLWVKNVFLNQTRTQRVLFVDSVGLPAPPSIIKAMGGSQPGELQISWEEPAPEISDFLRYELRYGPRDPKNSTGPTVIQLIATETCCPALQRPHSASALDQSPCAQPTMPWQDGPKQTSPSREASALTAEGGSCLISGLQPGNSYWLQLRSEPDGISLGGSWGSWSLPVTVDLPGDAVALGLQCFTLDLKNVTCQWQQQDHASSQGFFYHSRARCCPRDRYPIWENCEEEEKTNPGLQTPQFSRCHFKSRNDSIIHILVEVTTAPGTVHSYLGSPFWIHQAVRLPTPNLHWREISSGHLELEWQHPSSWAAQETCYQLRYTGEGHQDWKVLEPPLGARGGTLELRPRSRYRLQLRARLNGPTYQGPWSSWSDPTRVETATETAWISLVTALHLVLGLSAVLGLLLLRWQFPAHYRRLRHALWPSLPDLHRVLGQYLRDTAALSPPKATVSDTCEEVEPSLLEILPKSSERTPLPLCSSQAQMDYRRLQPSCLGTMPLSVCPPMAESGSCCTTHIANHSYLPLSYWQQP
Put plainly: Proliferation of BAF3/TPOR cells (MTS method, OD490). Particulars: BAF3 cells stably expressing human TPOR, cultured with compound 24 h. Format: cell-based, mouse. The source says:
The TPO mimetic compound was synthesized in vitro, and the compound acted on the TPO receptor (TPOR) on the cell to stimulate cell proliferation and differentiation. The OD490 value was detected by the MTS method, and the more the number of cells, the larger the OD value, thereby detecting the response of the compound to cell proliferation and differentiation. The agonist concentration at which the increased signal arrived at the highest level was Emax, and the concentration of the compound at which the increased signal arrived at 50% of the signal of Emax was EC50. The activity of the compound was determinable by EC50, and the smaller the EC50, the higher the activity of the compound.
Mouse […] BAF3 stably expressing human TPOR were cultured in 1640 medium containing 10% FBS. On the day of the assay, the cells were counted and seeded in a 96-well plate at 1×10^4 cells/50 μL. 50 μL of different concentrations of the tested compound were added to the wells to a final concentration of 10000 nM, 3000 nM, 300 nM, 30 nM, 3 nM, 0.3 nM, 0.03 nM, 0.003 nM, 0.0003 nM, and the final concentration of DMSO was 1%. After the cells were cultured with the compound for 24 h at 37° C. in a 5% CO2 incubator, 10 μL of detection reagent (Promega, Cell Titer 96® Aqueous One Solution) was added. After mixing, the resulting mixture was incubated for 3 h in the incubator. The OD 490 was detected using a multifunctional automatic microplate reader, and the EC50 was fitted using GraphPad Prism 5 software.
With `O=C(Nc1nc(-c2cc(Cl)cs2)c(N2CC3CCN(C4C[C@H]5CC[C@@H]4C5)C3C2)s1)c1cnc(N2CCC(C(=O)O)CC2)c(Cl)c1` (stereo in doubt) [Example 9, 1-[3-chloro-5-((4-(4-chlorothiophen-2-yl)-5-(1-(bicyclo[2.2.1]hept-2-yl)-hexahydropyrrolo[3,4-b]pyrrol-5(1H)-yl)thiazol-2-yl)carbamoyl)pyridin-2-yl]piperidine-4-carboxylic acid], the EC50 came to 0.21 nM.

Turning to `O=C(Nc1nc(-c2cc(Cl)cs2)c(N2CC3CCN(C4CCC4)C3C2)s1)c1cnc(N2CCC(C(=O)O)CC2)c(Cl)c1` (stereo not drawn) [Example 2, 1-(3-chloro-5-((4-(4-chlorothiophen-2-yl)-5-(1-cyclobutyl-hexahydropyrrolo[3,4-b]-pyrrol-5(1H)-yl)-thiazol-2-yl)-carbamoyl)-pyridin-2-yl)-piperidine-4-carboxylic acid], the EC50 worked out at 0.21 nM.

For `O=C(Nc1nc(-c2cc(Cl)cs2)c(N2CC3CCN(C4CCCCC4)C3C2)s1)c1cnc(N2CCC(C(=O)O)CC2)c(Cl)c1` (stereo not drawn) [Example 5, 1-(3-chloro-5-((4-(4-chlorothiophen-2-yl)-5-(1-cyclohexyl-hexahydropyrrolo[3,4-b]pyrrol-5(1H)-yl)-thiazol-2-yl)-carbamoyl)-pyridin-2-yl)-piperidine-4-carboxylic acid], the concentration giving a half-maximal response (EC50) was 0.08 nM.

Consider `O=C(Nc1nc(-c2cc(Cl)cs2)c(N2CC3CCN(C4CCCCCC4)C3C2)s1)c1cnc(N2CCC(C(=O)O)CC2)c(Cl)c1` (stereo not drawn) [Example 8, 1-(3-chloro-5-((4-(4-chlorothiophen-2-yl)-5-(1-cycloheptyl-hexahydropyrrolo[3,4-b]pyrrol-5(1H)-yl)-thiazol-2-yl)-carbamoyl)-pyridin-2-yl)-piperidine-4-carboxylic acid], for which the EC50 came to 1.11 nM.

Take `O=C(Nc1nc(-c2cc(Cl)cs2)c(N2CC3CCN(C4[C@H]5C[C@@H]6C[C@@H](C[C@H]4C6)C5)C3C2)s1)c1cnc(N2CCC(C(=O)O)CC2)c(Cl)c1` (stereo partly drawn) [Example 10, 1-(3-chloro-5-((4-(4-chlorothiophen-2-yl)-5-(1-(1R,3R,5R,7R)-adamantanyl-hexahydropyrrolo[3,4-b]pyrrol-5(1H)-yl)-thiazol-2-yl)carbamoyl)-pyridin-2-yl)-piperidine-4-carboxylic acid]: the EC50 amounted to 0.1 nM.

Take `O=C(Nc1nc(-c2cc(Cl)cs2)c(N2CC3CCC2CN3C2CCCCC2)s1)c1cnc(N2CCC(C(=O)O)CC2)c(Cl)c1` (stereo not drawn) [Example 29, 3′-chloro-5′-(4-(4-chlorothiophen-2-yl)-5-(5-cyclohexyl-2,5-diazabicyclo[2.2.2]octan-2-yl)-thiazol-2-carbamoyl)-3,4,5,6-tetrahydro-2H-[1,2′]bipyridine-4-carboxylic acid]: the EC50 was 0.89 nM.

As to `C/C(=C\c1c(Cl)cc(C(=O)Nc2nc(-c3cccc(C(F)(F)F)c3)c(N3CC4CCN(C5CCCCC5)C4C3)s2)cc1Cl)C(=O)O` (stereo not drawn) [Example 35, (E)-3-(2,6-dichloro-4-(5-(1-cyclohexyl-hexahydropyrrolo[3,4-b]pyrrol-5-yl)-4-(3-trifluoromethylphenyl)-thiazol-2-carbamoyl)-phenyl)-2-methyl-acrylic acid], the half-maximal effective concentration (EC50) turned out to be 0.57 nM.

With `C/C(=C\c1c(Cl)cc(C(=O)Nc2nc(-c3cc(Cl)cs3)c(N3CC4CCN(C5CCCCC5)C4C3)s2)cc1Cl)C(=O)O` (stereo not drawn) [Example 36, (E)-3-(2,6-dichloro-4-((4-(4-chlorothiophen-2-yl)-5-(1-cyclohexyl-hexahydropyrrolo[3,4-b]pyrrol-5(1H)-yl)-thiazol-2-yl)-carbamoyl)-phenyl)-2-methylacrylic acid], the EC50 came out at 0.1 nM.

On to `C/C(=C\c1c(Cl)cc(C(=O)Nc2nc(-c3cc(Cl)cs3)c(N3CC4CCN(C5CCC5)C4C3)s2)cc1Cl)C(=O)O` (stereo not drawn) [Example 37, (E)-3-(2,6-dichloro-4-((4-(4-chlorothiophen-2-yl)-5-(1-cyclobutyl-hexahydropyrrolo[3,4-b]pyrrol-5(1H)-yl)-thiazol-2-yl)-carbamoyl)-phenyl)-2-methylacrylic acid], for which the EC50 is 0.34 nM.

Broadly, the EC50 is the concentration at which the effect is half-maximal.
